Reference: patent US20250082659A1, “MANNO-OLIGOSACCHARIDE COMPOSITIONS FOR PATHOGEN CONTROL” (priority 2022, published 2025)

Test system: Streptococcus mutans
Assay: Inhibition of Streptococcus mutans by penicillin with or without MOS (Example 12)
Settings: BHI media

## penicillin
  inhibition of S. mutans growth: 10%
